Test results reported in US9481676B2, “Azepino[4,5-B]indoles and methods of use” (Medivation Technologies, Inc., priority 2008, dated 2016).

How the values were obtained:
[1] = target: T1, human recombinant histamine H2 receptor (Homo sapiens, UniProt P25021); assay: Histamine H2 radioligand binding ([125I]Aminopotentidine); conditions: compound at 1 μM; read-out: Histamine Binding (1 μM) H2, percent inhibition of specific binding
T1 construct: expressed in transfected cells; host or cells: CHO-K1 cells
T1 sequence (P25021 whole entry): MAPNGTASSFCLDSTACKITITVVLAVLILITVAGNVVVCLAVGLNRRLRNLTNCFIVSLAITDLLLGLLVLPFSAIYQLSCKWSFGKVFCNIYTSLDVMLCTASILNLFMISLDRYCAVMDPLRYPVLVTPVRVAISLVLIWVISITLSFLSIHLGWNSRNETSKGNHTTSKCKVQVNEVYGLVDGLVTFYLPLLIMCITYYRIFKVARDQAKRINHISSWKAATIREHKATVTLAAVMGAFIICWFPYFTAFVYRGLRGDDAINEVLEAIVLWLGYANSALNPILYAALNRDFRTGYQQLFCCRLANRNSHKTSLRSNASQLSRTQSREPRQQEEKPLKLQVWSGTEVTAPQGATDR
How it was run: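 Membranes from CHO-K1 cells expressing recombinant human H2 receptor, in 50 mM phosphate buffer pH 7.4, incubated with 0.1 nM [125I]aminopotentidine for 120 min at 25 °C; nonspecific binding defined with 3 μM tiotidine.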

[2] = target: T2, human recombinant adrenergic α1D receptor (Homo sapiens, UniProt P25100); assay: Adrenergic alpha1D radioligand binding ([3H]Prozosin); conditions: compound at 1 μM; read-out: Adrenergic (1 μM) α1D, percent inhibition of specific binding
T2 construct: expressed in transfected cells; host or cells: HEK-293 cells
T2 sequence (P25100 1-572): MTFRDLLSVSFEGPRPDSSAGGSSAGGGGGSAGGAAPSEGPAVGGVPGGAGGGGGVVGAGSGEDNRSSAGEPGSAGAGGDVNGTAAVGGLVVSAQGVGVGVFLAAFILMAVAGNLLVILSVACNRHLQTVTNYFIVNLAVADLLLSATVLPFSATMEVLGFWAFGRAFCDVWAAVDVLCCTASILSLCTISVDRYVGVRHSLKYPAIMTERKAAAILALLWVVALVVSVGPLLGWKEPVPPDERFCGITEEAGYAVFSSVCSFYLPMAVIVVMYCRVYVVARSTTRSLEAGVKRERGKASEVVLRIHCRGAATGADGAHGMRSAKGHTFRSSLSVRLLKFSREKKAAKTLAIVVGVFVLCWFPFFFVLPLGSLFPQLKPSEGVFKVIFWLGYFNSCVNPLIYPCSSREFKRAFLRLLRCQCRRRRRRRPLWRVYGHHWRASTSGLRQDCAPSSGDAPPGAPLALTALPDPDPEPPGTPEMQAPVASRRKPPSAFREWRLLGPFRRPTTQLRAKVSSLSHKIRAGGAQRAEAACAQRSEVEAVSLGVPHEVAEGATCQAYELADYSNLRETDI
How it was run: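 Membranes from HEK-293 cells expressing the human receptor in 50 mM Tris-HCl pH 7.4 were incubated 60 min at 25 °C with 0.6 nM [3H]prazosin. Nonspecific binding was defined with 10 μM phentolamine, and bound ligand measured by filtration.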

[3] = target: T3, human recombinant adrenergic α2A receptor (Homo sapiens, UniProt P08913); assay: Adrenergic alpha2A radioligand binding ([3H]MK-912); conditions: compound at 1 μM; read-out: Adrenergic (1 μM) α2A, percent inhibition of specific binding
T3 construct: expressed in transfected cells; host or cells: insect Sf9 cells
T3 sequence (P08913 1-465): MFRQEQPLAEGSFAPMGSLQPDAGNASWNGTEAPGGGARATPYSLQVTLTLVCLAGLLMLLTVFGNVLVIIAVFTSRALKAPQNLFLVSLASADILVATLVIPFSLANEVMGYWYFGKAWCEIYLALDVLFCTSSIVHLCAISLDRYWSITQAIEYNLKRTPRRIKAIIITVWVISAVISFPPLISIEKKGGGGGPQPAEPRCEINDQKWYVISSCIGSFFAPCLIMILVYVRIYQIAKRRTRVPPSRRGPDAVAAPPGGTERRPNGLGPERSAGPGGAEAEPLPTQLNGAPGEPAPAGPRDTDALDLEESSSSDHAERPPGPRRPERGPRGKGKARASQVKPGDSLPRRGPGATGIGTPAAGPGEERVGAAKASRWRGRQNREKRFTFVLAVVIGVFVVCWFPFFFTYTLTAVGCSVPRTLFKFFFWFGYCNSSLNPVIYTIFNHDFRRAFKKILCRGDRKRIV
How it was run: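 Membranes of Sf9 cells expressing human recombinant α2A receptor were incubated with compound and 1 nM [3H]MK-912 for 60 min at 25 °C in 50 mM Tris-HCl pH 7.4, 12.5 mM MgCl2, 2 mM EDTA. Nonspecific binding: 10 μM WB-4101.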

[4] = target: T4, human recombinant dopamine D2L receptor (Homo sapiens, UniProt P14416); assay: Dopamine D2L radioligand binding ([3H]Spiperone); conditions: compound at 1 μM; read-out: Dopamine (1 μM) D2L, percent inhibition of specific binding
T4 construct: expressed in transfected cells; host or cells: CHO cells
T4 sequence (P14416 whole entry): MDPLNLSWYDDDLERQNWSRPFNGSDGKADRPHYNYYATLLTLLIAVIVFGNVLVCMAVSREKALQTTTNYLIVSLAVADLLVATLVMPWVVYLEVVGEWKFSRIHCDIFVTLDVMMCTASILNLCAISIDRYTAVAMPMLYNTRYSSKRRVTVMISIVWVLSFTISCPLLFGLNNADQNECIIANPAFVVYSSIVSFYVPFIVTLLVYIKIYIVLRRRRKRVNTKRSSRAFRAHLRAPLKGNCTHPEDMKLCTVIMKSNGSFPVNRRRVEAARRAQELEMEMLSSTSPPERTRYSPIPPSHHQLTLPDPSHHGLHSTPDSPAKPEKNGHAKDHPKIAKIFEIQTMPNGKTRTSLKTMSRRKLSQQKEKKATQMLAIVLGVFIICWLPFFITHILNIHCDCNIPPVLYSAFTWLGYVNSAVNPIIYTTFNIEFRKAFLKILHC
How it was run: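 Human recombinant D2L receptor from CHO cells, in Tris-HCl buffer pH 7.4 with ascorbic acid, BSA and 150 mM NaCl; compounds at 1 μM or lower (1% DMSO) incubated with 0.16 nM [3H]spiperone, 120 min, 25° C. Nonspecific binding by 10 μM haloperidol; filter counting; % inhibition of specific binding.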

COc1ccc(C(O)Cn2c3c(c4cc(C)ccc42)CCN(C)CC3)c(F)c1 (centres unmarked) [Compound No. 50, 1-(2-fluoro-4-methoxyphenyl)-2-(2,3,4,5-tetrahydro-3,9-dimethylazepino[4,5-b]indol-6(1H)-yl)ethanol]
inhibition at 1 µM [1]: 65%
inhibition at 1 µM [2]: 84%
inhibition at 1 µM [3]: 94%
inhibition at 1 µM [4]: 34%

C=C(Cn1c2c(c3cc(Cl)ccc31)CCN(C)CC2)c1ccc(Cl)cc1 [Compound No. 35, 9-chloro-6-(2-(4-chlorophenyl)allyl)-3-methyl-1,2,3,4,5,6-hexahydroazepino[4,5-b]indole]
inhibition at 1 µM [1]: 104%
inhibition at 1 µM [2]: 96%
inhibition at 1 µM [3]: 93%
inhibition at 1 µM [4]: 50%

Cc1ccc2c(c1)c1c(n2/C=C/c2ccc(F)cc2)CCN(C)CC1 [Compound No. 39, 6-(4-fluorostyryl)-1,2,3,4,5,6-hexahydro-3,9-dimethylazepino[4,5-b]indole]
inhibition at 1 µM [1]: 91%
inhibition at 1 µM [2]: 99%
inhibition at 1 µM [3]: 98%
inhibition at 1 µM [4]: 66%

CN1CCc2c(n(C#Cc3ccc(Cl)cc3)c3ccc(Cl)cc23)CC1 [Compound No. 282, 9-chloro-6-((4-chlorophenyl)ethynyl)-3-methyl-1,2,3,4,5,6-hexahydroazepino[4,5-b]indole]
inhibition at 1 µM [1]: 87%
inhibition at 1 µM [2]: 67%
inhibition at 1 µM [3]: 95%
inhibition at 1 µM [4]: 1%

Cc1ccc2c(c1)c1c(n2CCc2ccc(C(F)(F)F)nc2)CCN(C)CC1 [Compound No. 20, 6-(2-(6-(trifluoromethyl)pyridin-3-yl)ethyl)-1,2,3,4,5,6-hexahydro-3,9-dimethylazepino[4,5-b]indole]
inhibition at 1 µM [1]: 37%
inhibition at 1 µM [2]: 91%
inhibition at 1 µM [3]: 68%
inhibition at 1 µM [4]: 13%

CN1CCc2c(n(/C=C/c3ccc(F)c(F)c3)c3ccc(Cl)cc23)CC1 [Compound No. 236, (E)-9-chloro-6-(3,4-difluorostyryl)-3-methyl-1,2,3,4,5,6-hexahydroazepino[4,5-b]indole]
inhibition at 1 µM [1]: 97%
inhibition at 1 µM [2]: 94%
inhibition at 1 µM [3]: 89%
inhibition at 1 µM [4]: 34%

CN1CCc2c(n(CCc3ccccc3)c3ccc(Cl)cc23)CC1 [Compound No. 56, 9-chloro-1,2,3,4,5,6-hexahydro-3-methyl-6-phenethylazepino[4,5-b]indole]
inhibition at 1 µM [1]: 74%
inhibition at 1 µM [2]: 83%
inhibition at 1 µM [3]: 95%
inhibition at 1 µM [4]: 62%

Cc1ccc2c(c1)c1c(n2CC(O)c2ccc(F)cc2F)CCN(C)CC1 (centres unmarked) [Compound No. 59, 1-(2,4-difluorophenyl)-2-(2,3,4,5-tetrahydro-3,9-dimethylazepino[4,5-b]indol-6(1H)-yl)ethanol]
inhibition at 1 µM [1]: 37%
inhibition at 1 µM [2]: 73%
inhibition at 1 µM [3]: 89%
inhibition at 1 µM [4]: 20%

CN1CCc2c(n(CC(O)c3ccccc3F)c3ccc(Cl)cc23)CC1 (centres unmarked) [Compound No. 40, 2-(9-chloro-2,3,4,5-tetrahydro-3-methylazepino[4,5-b]indol-6(1H)-yl)-1-(2-fluorophenyl)ethanol]
inhibition at 1 µM [1]: 61%
inhibition at 1 µM [2]: 64%
inhibition at 1 µM [3]: 96%
inhibition at 1 µM [4]: 46%

COc1ccc(C(O)Cn2c3c(c4cc(C)ccc42)CCN(C)CC3)cc1F (centres unmarked) [Compound No. 68, 1-(3-fluoro-4-methoxyphenyl)-2-(2,3,4,5-tetrahydro-3,9-dimethylazepino[4,5-b]indol-6(1H)-yl)ethanol]
inhibition at 1 µM [1]: 69%
inhibition at 1 µM [2]: 93%
inhibition at 1 µM [3]: 99%
inhibition at 1 µM [4]: 40%

CN1CCc2c(n(CC(=O)Nc3ccc(F)cc3)c3ccc(Cl)cc23)CC1 [Compound No. 37, 2-(9-chloro-2,3,4,5-tetrahydro-3-methylazepino[4,5-b]indol-6(1H)-yl)-N-(4-fluorophenyl) acetamide]
inhibition at 1 µM [1]: 4%
inhibition at 1 µM [2]: 14%
inhibition at 1 µM [3]: 68%
inhibition at 1 µM [4]: 9%
